Tested on: non-human primate (NHP)
Experiment: Intraperitoneal implant of alginate microbeads in non-human primates: surgical inspection, lavage recovery and biopsy histopathology
Type: in vivo
Experimental: In the first non-human primate (NHP) study with alginate microbeads, two animals received intraperitoneal implants of ˜400,000 microbeads each of (1.6% calcium LVM) alginate containing either 1 μg/ml of recombinant human CXCL12 (“CXCL12^+”) or not (“CXCL12”). Microbeads were prepared using a vibrational encapsulation method using a 200 μm nozzle. Microbeads were on average 426-427 μm in diameter with an error of the mean of approximately 10-15%. The diameter was measured after 2 hours in culture media. Microbeads swell 30-40% after transfer into some media or after implantation. Median roundness was less than the desirable 0.90, ranging from 0.78 in the CXCL12^− microbeads (FIG. 1) to 0.80 in the CXCL12^+ (FIG. 2), but with a skew in roundness reflecting a small but significant number of non-round beads. Microbeads were delivered in a blinded manner to operators. During the implant, primate 0715 received the CXCL12^− implant; primate 1715 received the CXCL12^+ implant. Both animals were implanted using a minimally invasive technique featuring placement of beads in 30 cc of 300 mOsmolar calcium chloride solution in the intraperitoneal space and explanted surgically. Neither of the procedures was eventful. Both animals appeared healthy during the entire period of four weeks following the implantation procedure. The explant procedure for each animal involved surgical opening of the peritoneal cavity, visual inspection of all regions of the mesentery and abdomen/pelvis for bead position, lavage with 100 cc of N-saline to recover free microbeads and peritoneal fluid, and biopsy of tissues where microbeads appeared to be embedded in the tissue. Evaluation was done at 30, 90, and 180 days. Arrows point to adhesions.

Substance: CXCL12: chemokine CXCL12 (also called SDF-1); recombinant human CXCL12 used in the microbeads
- adhesions following surgery or explantation of the capsules (CXCL12 applied into the intraperitoneal cavity in alginate capsules): no adhesions
- long-term appearance of the peritoneum / surgical adhesions (later timepoints (day 90 and day 180), compared to CXCL12^- NHP): more normal and without surgical adhesions
- foreign body responses to embedded microbeads (through 90 days): spare embedded microbeads from foreign body responses
